Test [1] relates to tyrosine hydroxylase (TH). Description: Differentiation of pluripotent stem cells into dopaminergic neurons: tyrosine hydroxylase expression. Type of test: cell-based. As for the experimental part:
Pluripotent stem cells were seeded in Aggre Well plates (stemcell) at 5,000 cells/microwell and cultured for 5 days in E6 medium (GIBCO) to induce embryonic body (EB) formation. For neural rosette formation, EBs were seeded into 35 mm dishes in groups of 30 and cultured for 10 days in N2bF medium. The 35 mm dishes were used after being coated with 15 μg/ml of poly-L-ornithine (sigma) and 1 μg/ml of fibronectin (sigma). The N2Bf medium composition was DMEM/F12 (GIBCO), N2 supplement (stemcell) 1×, 10% NEAA (GIBCO), 55 µM beta-Mercaptoethanol (GIBCO), bFGF (peprotech) 20 ng/ml. For the formation of spherical neural masses (SNMs), rosette masses were sliced and cultured in petri dishes with N2bF medium. SNMs were no larger than 500 UM in size and were sliced and cultured for 3 to 4 passages. After subculture of SNM, the clumps were broken into small pieces using a tungsten mesh (Nilaco) for the neural progenitor cell (NPC) culture step, and then attached to a PLO/FN-coated dish and cultured in N2bF medium. To differentiate NPCs into dopaminergic neurons, the medium was replaced with an ITS-B27 medium after 2 days of NPC culture. The ITS-B27 medium composition was DMEM/F12 (GIBCO), D-(+)-glucose (sigma) 1.5 mg/ml, insulin (wako) 5 μg/ml, transferrin (wako) 50 μg/ml, selenite (sigma) 30 nM, GlutaMAX (GIBCO) 2.5%, and B27 (GIBCO) 1×. After 4 days of NPC culture, 200 ng/ml of Sonic Hedgehog and 100 ng/ml of FGF8 (peprotech) were added to the ITS-B27 medium. After 6 days of NPC culture, 200 ng/ml of Sonic Hedgehog, 20 ng/ml of GDNF, 20 ng/ml of BDNF (peprotech), 200 µM of ascorbic acid, and 500 μM of cAMP (sigma) were added to the ITS-B27 medium and cultured for approximately 5 weeks. The compound of formula (1a-1) was treated starting from the stage 2 days after NPC culture. […]
(§1) The effect of the compound of formula (1a-1) on differentiation into neurons was evaluated by comparing the expression of tyrosine hydroxylase (TH) and dopamine transporter (DAT) depending on the presence or absence of treatment with the compound of formula (1a-1).

In a further test the test system is IL-6. In words: IL-6 in serum after CLP treatment by ELISA. Format: in vivo, mouse. The note with it: serum at 18 hours, treated at 6 and 16 hours after CLP; FIG. 10. As for the experimental part: (§2) After CLP treatment, the inflammatory cytokines TNF-α and IL-6 were analyzed by ELISA.
(§3) Specifically, after treating the compound of formula (1a-1) at 6 and 16 hours after CLP treatment, mouse blood was collected at 18 hours and allowed to stand at room temperature for 1 hour, then centrifuged at 3000 rpm for 10 minutes to obtain serum to analyze the amount of TNF-α and IL-6.

Another test relates to Tau protein. In words: Expression of Tau in brain of AD-induced animal model by fluorescence microscopy. Format: in vivo. Conditions: mouse brain, 1 mg/kg i.p. once every 3 days for 2 weeks, FIG. 3. As for the experimental part:
To determine the therapeutic effect on Alzheimer's Disease (AD), the effects on amyloid beta monomer (monomeric Aβ, mAβ) and Tau protein, which are biomarkers of AD, were analyzed in an AD-induced animal model.
APP/PS/Tau transgenic mice were used as an AD-induced animal model. The compound of formula (1a-1) was administered intraperitoneally once every 3 days at a concentration of 1 mg/kg to 12-week-old transgenic mice for 2 weeks, and the expression of mAβ and Tau proteins in the mouse brain was measured after 1 and 4 weeks. After anesthetizing the mouse, the cervical region was incised with a dissecting tool, and then the occipital region was incised to remove both sides of the skull. The brain was washed with phosphate buffered saline (PBS) and fixed with 4% paraformaldehyde (Sigma, St Louis, MO, USA) for 12 hours at 4 °C. These were cut to a thickness of approximately 10 μm using a vibratome, and hippocampus and cortex sections were collected and placed in 24 wells. PBS was added to the wells containing the fixed tissue sections, and fluorescent nanoparticles (QD565, red fluorescence) conjugated with anti-amyloid antibodies and anti-Tau antibodies (Santa Cruz, USA) were added to each 2 μM, and reacted at 4 °C for 12 hours. The expression of mAβ and Tau was confirmed by fluorescence microscopy.

In a further test the test system is C57BL/6 mice. In words: Survival in sepsis induced by cecal ligation and puncture (CLP). Type of test: in vivo, mouse. The note with it: 100 ng/mouse (5 μg/kg) i.v. at 6 and 16 hours after CLP; FIG. 7. As for the experimental part: C57BL/6 mice aged 7-8 weeks were purchased from Jabio (Suwon, Gyeonggi-do) and sepsis was induced by cecal ligation and puncture (CLP).
Specifically, after anesthesia using 150 mg/kg of ketamine and 17.5 mg/kg of rompun, an abdominal incision of 1-2 cm was made to expose the cecum to induce sepsis. The cecum was ligated with 6-0 silk sutures at the distal end of the ileocecal valve, and a puncture was made with an 18-gauge needle. The perforated cecum was gently squeezed to push out 1-2 cm of feces, and the cecum was then retracted back into the abdominal cavity. The abdomen was then closed and pre-warmed normal saline (2.5 mL/100 g body weight) was injected into the mouse abdominal cavity immediately after the procedure. 6 and 16 hours after CLP treatment, the compound of formula (1a-1) was dissolved in phosphate buffered saline (PBS) and injected intravenously at 100 ng/mouse (5 μg/kg), and survival was examined for 10 days. […] In addition, as a drug-negative control, survival was examined in mice that received only PBS after CLP treatment.
For comparison, we also examined the survival of a control group treated with fingolimod (FTY720), a known S1P modulator, instead of the compound of formula (1a-1) under the same conditions.

In the next test the test system is pluripotent stem cells. Description: Differentiation of pluripotent stem cells into dopaminergic neurons. Conditions: FIG. 5. Type of test: cell-based. As for the experimental part:
Pluripotent stem cells were seeded in Aggre Well plates (stemcell) at 5,000 cells/microwell and cultured for 5 days in E6 medium (GIBCO) to induce embryonic body (EB) formation. For neural rosette formation, EBs were seeded into 35 mm dishes in groups of 30 and cultured for 10 days in N2bF medium. The 35 mm dishes were used after being coated with 15 μg/ml of poly-L-ornithine (sigma) and 1 μg/ml of fibronectin (sigma). The N2Bf medium composition was DMEM/F12 (GIBCO), N2 supplement (stemcell) 1×, 10% NEAA (GIBCO), 55 µM beta-Mercaptoethanol (GIBCO), bFGF (peprotech) 20 ng/ml. For the formation of spherical neural masses (SNMs), rosette masses were sliced and cultured in petri dishes with N2bF medium. SNMs were no larger than 500 UM in size and were sliced and cultured for 3 to 4 passages. After subculture of SNM, the clumps were broken into small pieces using a tungsten mesh (Nilaco) for the neural progenitor cell (NPC) culture step, and then attached to a PLO/FN-coated dish and cultured in N2bF medium. […]
as §1

The next test concerns TNF-α. Description: TNF-α in serum after CLP treatment by ELISA. Format: in vivo, mouse. The note with it: serum at 18 hours, treated at 6 and 16 hours after CLP; FIG. 10. As for the experimental part: as §2, §3
A further test concerns SIRT1. Description: SIRT1 expression in mouse vascular cells. Format: cell-based.

These results are taken from patent publication US20260365684A1, “PHYTOSPHINGOSINE-3,4-CYCLICPHOSPHATE COMPOUND AND PHARMACEUTICAL COMPOSITION COMPRISING THE SAME” (AXCESO BIOPHARMA CO., LTD., priority 2022, published 2026).

A value given as a limit tells only on which side of the number the result lay.

On to `CCCCCCCCCCCCCC[C@H]1OP(=O)(O)O[C@H]1[C@@H](N)CO.Cl` [formula (1a-1), (4S,5R)-4-((S)-1-amino-2-hydroxyethyl)-2-hydroxy-5-tetradecyl-1,3,2-dioxaphosphoran-2-oxide hydrochloride], for which the “TH expression (western blot)” value in test [1] (5-week differentiation sample, FIG. 5B) is given as “TH expression is increased”. For the same molecule, in test [1] (FIG. 5A), the “expression of TH (cell fluorescence immunostaining)” value is “the expression of TH increased”. The “time at which TH expression was elevated” value in test [1] (FIG. 5A, TH expression otherwise increases after more than 5 weeks of differentiation) is at most 3 weeks. In the test with IL-6, the “amount of IL-6” value is reported as “significantly decreased”. For the same molecule, the “red fluorescence for Tau” value with Tau protein (1 week and 4 weeks after) is “negligible red fluorescence for mAβ and Tau”. The “expression of Tau protein” value with Tau protein was “significantly reduced”. Moreover, in the test on C57BL/6 mice, the “deaths after 10 days” value is listed as “no deaths” and the “survival for 10 days” value is recorded as “more than 80%”. The “differentiation of pluripotent stem cells into dopaminergic neurons” value in the test on pluripotent stem cells is “can promote the differentiation of pluripotent stem cells into dopaminergic neurons”. Moreover, the “amount of TNF-α” value in the test with TNF-α is listed as “significantly decreased”. Moreover, the “concentration of maximum SIRT1 expression” value in the test on SIRT1 amounted to 100 ng/mL.
